Laboratory results taken from patent US8304446B2, “Compounds” (Glaxo Group Limited, priority 2009, dated 2012).
Where a name gives a salt, the structure may show the parent alone.

Key:
CCR4 = target: T1, CCR4 (Homo sapiens, UniProt P51679); assay: [35S]-GTPγS SPA binding assay for CCR4 antagonist activity; assay type: biochemical; details: CCR4 expressing CHO membranes; human MDC at EC80; [35S]-GTPγS competition
T1 construct: expressed in transfected cells; host or cells: CHO cell membranes
T1 sequence (P51679 1-360): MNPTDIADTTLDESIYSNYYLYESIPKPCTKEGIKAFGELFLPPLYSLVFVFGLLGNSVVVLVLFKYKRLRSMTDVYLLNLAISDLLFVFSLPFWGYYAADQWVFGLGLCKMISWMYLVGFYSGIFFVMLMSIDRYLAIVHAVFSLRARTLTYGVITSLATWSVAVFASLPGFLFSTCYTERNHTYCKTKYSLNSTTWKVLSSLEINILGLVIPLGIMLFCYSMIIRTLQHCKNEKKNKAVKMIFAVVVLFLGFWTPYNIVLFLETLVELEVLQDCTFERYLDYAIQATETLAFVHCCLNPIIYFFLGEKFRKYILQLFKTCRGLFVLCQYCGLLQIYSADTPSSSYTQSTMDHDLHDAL
Protocol: [35S]-GTPγS SPA Binding Assays for CCR4 Antagonist Activity
Antagonist potency was determined by a radioligand [35S]-GTPγS competition assay. Briefly, CCR4 expressing CHO membranes were homogenised by passing through a 23G needle. These membranes were then adhered to WGA-coated Leadseeker SPA beads in assay buffer (20 mM HEPES, 10 mM MgCl2, 100 mM NaCl, 0.05% BSA, 40 ug/ml Saponin and pH adjusted to 7.4 using KOH 5M) to generate a 3 μg/well final assay concentration (FAC) membrane and 250 μg/well FAC bead, solution.
The bead/membrane/[35S]-GTPγS/Agonist suspension was dispensed into white Greiner polypropylene 384-well plates (45 μl/well), containing 0.5 μl of compound. […] Plates were then read on a Viewlux instrument and luminescence was then plotted as a percentage of the maximum inhibitional response elicited by an IC100 of a standard antagonist.

CD4+ CCR4+ T cells = assay: Chemokine stimulated increases in cellular F-actin content; assay type: cell-based; details: Homo sapiens, T-cell, 0.5 h; PBMC from normal volunteers; antagonist 30 min at 37° C. before agonist for 15 sec; F-actin content by flow cytometry; read-out: pA2 (converted)
In short: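 Human PBMC from citrated volunteer blood, stained for CD4 and CCR4, were pre-incubated with antagonist or vehicle (0.1% DMSO) for 30 min at 37 °C, then stimulated with agonist for 15 s and formaldehyde-fixed. F-actin was stained with phalloidin and read by flow cytometry as CD4+CCR4+ MFI relative to CD4+CCR4− cells.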

| IC50 (CCR4) | SMILES | Kb (CD4+ CCR4+ T cells) |
| --- | --- | --- |
| 3.98 to 15.8 nM | COc1cccc2c1c(NS(=O)(=O)c1ccc(Cl)s1)nn2Cc1cccc(CNC(=O)[C@@H]2C[C@H](F)CN2)c1 [Example 28, (4S)—N-[(3-{[3-{[(5-chloro-2-thienyl)sulfonyl]amino}-4-(methyloxy)-1H-indazol-1-yl]methyl}phenyl)methyl]-4-fluoro-L-prolinamide trifluoroacetate] | ≤ 126 nM |
| 3.98 to 15.8 nM | COc1cccc2c1c(NS(=O)(=O)c1ccc(Cl)s1)nn2Cc1cccc(CNC(=O)[C@H](C)N)c1 [Example 18, N^1-[(3-{[3-{[(5-chloro-2-thienyl)sulfonyl]amino}-4-(methyloxy)-1H-indazol-1-yl]methyl}phenyl)methyl]-L-alaninamide trifluoroacetate] | ≤ 126 nM |
| 3.98 to 15.8 nM | COc1cccc2c1c(NS(=O)(=O)c1ccc(Cl)s1)nn2Cc1cccc(CNC(=O)C2CNCCN2)c1 (stereo not shown) [Example 16, N-[(3-{[3-{[(5-chloro-2-thienyl)sulfonyl]amino}-4-(methyloxy)-1H-indazol-1-yl]methyl}phenyl)methyl]-2-piperazinecarboxamide hydrochloride] | ≤ 126 nM |
| 3.98 to 15.8 nM | COc1cccc2c1c(NS(=O)(=O)c1ccc(Cl)s1)nn2Cc1cccc(CNC(=O)C(C)O)c1 (stereo not shown) [Example 37, N-[(3-{[3-{[(5-Chloro-2-thienyl)sulfonyl]amino}-4-(methyloxy)-1H-indazol-1-yl]methyl}phenyl)methyl]-2-hydroxypropanamide] | ≤ 126 nM |
| 3.98 to 15.8 nM | COc1cccc2c1c(NS(=O)(=O)c1ccc(Cl)s1)nn2Cc1cccc(CNC(=O)C(C)C)c1 [Example 3, N-[(3-{[3-{[(5-chloro-2-thienyl)sulfonyl]amino}-4-(methyloxy)-1H-indazol-1-yl]methyl}phenyl)methyl]-2-methylpropanamide] | ≤ 126 nM |
| 3.98 to 15.8 nM | COc1cccc2c1c(NS(=O)(=O)c1ccc(Cl)s1)nn2Cc1cccc(CNC(=O)[C@@H](N)Cc2cnc[nH]2)c1 [Example 44, N-[(3-{[3-{[(5-Chloro-2-thienyl)sulfonyl]amino}-4-(methyloxy)-1H-indazol-1-yl]methyl}phenyl)methyl]-L-histidinamide] | ≤ 126 nM |
| 3.98 to 15.8 nM | COc1cccc2c1c(NS(=O)(=O)c1ccc(Cl)s1)nn2Cc1cccc(CNC(=O)C2CCOC2)c1 (stereo not shown) [Example 35, N-[(3-{[3-{[(5-Chloro-2-thienyl)sulfonyl]amino}-4-(methyloxy)-1H-indazol-1-yl]methyl}phenyl)methyl]tetrahydro-3-furancarboxamide] | ≤ 126 nM |
| 3.98 to 15.8 nM | COc1cccc2c1c(NS(=O)(=O)c1ccc(Cl)s1)nn2Cc1cccc(CNC(=O)C(C)CN)c1 (stereo not shown) [Example 26, 3-Amino-N-[(3-{[3-{[(5-chloro-2-thienyl)sulfonyl]amino}-4-(methyloxy)-1H-indazol-1-yl]methyl}phenyl)methyl]-2-methylpropanamide trifluoroacetate] | ≤ 126 nM |
| 3.98 to 15.8 nM | CCC(=O)NCc1cccc(Cn2nc(NS(=O)(=O)c3ccc(Cl)s3)c3c(OC)cccc32)c1 [Example 2, N-[(3-{[3-{[(5-chloro-2-thienyl)sulfonyl]amino}-4-(methyloxy)-1H-indazol-1-yl]methyl}phenyl)methyl]propanamide] | ≤ 126 nM |
| 3.98 to 15.8 nM | COc1cccc2c1c(NS(=O)(=O)c1ccc(Cl)s1)nn2Cc1cccc(CNC(=O)[C@H]2COCCN2)c1 [Example 7, (3R)—N-[(3-{[3-{[(5-Chloro-2-thienyl)sulfonyl]amino}-4-(methyloxy)-1H-indazol-1-yl]methyl}phenyl)methyl]-3-morpholinecarboxamide hydrochloride] | ≤ 126 nM |
| 3.98 to 15.8 nM | CN[C@@H](C)C(=O)NCc1cccc(Cn2nc(NS(=O)(=O)c3ccc(Cl)s3)c3c(OC)cccc32)c1 [Example 17, N^1-[(3-{[3-{[(5-chloro-2-thienyl)sulfonyl]amino}-4-(methyloxy)-1H-indazol-1-yl]methyl}phenyl)methyl]-N^2-methyl-L-alaninamide trifluoroacetate] | ≤ 126 nM |
| 3.98 to 15.8 nM | COc1cccc2c1c(NS(=O)(=O)c1ccc(Cl)s1)nn2Cc1cccc(CNC(=O)[C@@H]2CCCCN2)c1 [Example 51, (2S)—N-[(3-{[3-{[(5-Chloro-2-thienyl)sulfonyl]amino}-4-(methyloxy)-1H-indazol-1-yl]methyl}phenyl)methyl]-2-piperidinecarboxamide trifluoroacetate] | ≤ 126 nM |
| 3.98 to 15.8 nM | COc1cccc2c1c(NS(=O)(=O)c1ccc(Cl)s1)nn2Cc1cccc(CNC(=O)C2CCOCC2)c1 [Example 43, N-[(3-{[3-{[(5-chloro-2-thienyl)sulfonyl]amino}-4-(methyloxy)-1H-indazol-1-yl]methyl}phenyl)methyl]tetrahydro-2H-pyran-4-carboxamide] | ≤ 126 nM |
| 3.98 to 15.8 nM | COc1cccc2c1c(NS(=O)(=O)c1ccc(Cl)s1)nn2Cc1cccc(CNC(=O)C2COCCN2C)c1 (single isomer, unassigned; enantiomer 1) [Example 124, N-[(3-{[3-{[(5-Chloro-2-thienyl)sulfonyl]amino}-4-(methyloxy)-1H-indazol-1-yl]methyl}phenyl)methyl]-4-methyl-3-morpholinecarboxamide Enantiomer 1] | ≤ 126 nM |
| 3.98 to 15.8 nM | COc1cccc2c1c(NS(=O)(=O)c1ccc(Cl)s1)nn2Cc1cccc(CNC(=O)C(C)(C)C)c1 [Example 4, N-[(3-{[3-{[(5-chloro-2-thienyl)sulfonyl]amino}-4-(methyloxy)-1H-indazol-1-yl]methyl}phenyl)methyl]-2,2-dimethylpropanamide] | ≤ 126 nM |
| 3.98 to 15.8 nM | COc1cccc2c1c(NS(=O)(=O)c1ccc(Cl)s1)nn2Cc1cccc(CNC(=O)[C@@H]2C[C@@H](F)CN2)c1 [Example 52, (4R)—N-[(3-{[3-{[(5-Chloro-2-thienyl)sulfonyl]amino}-4-(methyloxy)-1H-indazol-1-yl]methyl}phenyl)methyl]-4-fluoro-L-prolinamide trifluoroacetate] | ≤ 126 nM |
| 3.98 to 15.8 nM | COc1cccc2c1c(NS(=O)(=O)c1ccc(Cl)s1)nn2Cc1cccc(CNC(=O)[C@]2(C)CCCN2)c1 [Example 27, N-[(3-{[3-{[(5-chloro-2-thienyl)sulfonyl]amino}-4-(methyloxy)-1H-indazol-1-yl]methyl}phenyl)methyl]-2-methyl-L-prolinamide trifluoroacetate] | ≤ 126 nM |
| 3.98 to 15.8 nM | COc1cccc2c1c(NS(=O)(=O)c1ccc(Cl)s1)nn2Cc1cccc(CNC(=O)c2cn[nH]c2)c1 [Example 33, N-[(3-{[3-{[(5-Chloro-2-thienyl)sulfonyl]amino}-4-(methyloxy)-1H-indazol-1-yl]methyl}phenyl)methyl]-1H-pyrazole-4-carboxamide] | ≤ 126 nM |
| 3.98 to 15.8 nM | O=C(NCc1cccc(Cn2nc(NS(=O)(=O)c3ccc(Cl)s3)c3c(O)cccc32)c1)C1COCCN1 (stereo not shown) [Example 73, N-({3-[(3-{[(5-Chloro-2-thienyl)sulfonyl]amino}-4-hydroxy-1H-indazol-1-yl)methyl]phenyl}methyl)-3-morpholinecarboxamide formate salt] | ≤ 126 nM |
| 3.98 to 15.8 nM | COc1cccc2c1c(NS(=O)(=O)c1ccc(Cl)s1)nn2Cc1cccc(CNC(=O)[C@H](N)C(C)C)c1 [Example 48, N^1-[(3-{[3-{[(5-Chloro-2-thienyl)sulfonyl]amino}-4-(methyloxy)-1H-indazol-1-yl]methyl}phenyl)methyl]-D-valinamide] | ≤ 126 nM |
| 3.98 to 15.8 nM | CC(=O)NCc1cccc(Cn2nc(NS(=O)(=O)c3ccc(Cl)s3)c3c(O)cccc32)c1 [Example 72, N-({3-[(3-{[(5-Chloro-2-thienyl)sulfonyl]amino}-4-hydroxy-1H-indazol-1-yl)methyl]phenyl}methyl)acetamide] | ≤ 126 nM |

| SMILES | IC50 (CCR4) | Kb (CD4+ CCR4+ T cells) |
| --- | --- | --- |
| COc1cccc2c1c(NS(=O)(=O)c1ccc(Cl)s1)nn2Cc1cccc(CNC(=O)C2COCCN2)c1 (stereo not shown) [Example 6, N-[(3-{[3-{[(5-chloro-2-thienyl)sulfonyl]amino}-4-(methyloxy)-1H-indazol-1-yl]methyl}phenyl)methyl]-3-morpholinecarboxamide trifluoroacetate] | 3.98 to 15.8 nM | ≤ 126 nM |
| COc1cccc2c1c(NS(=O)(=O)c1ccc(Cl)s1)nn2Cc1cccc(CNC(=O)C(C)(C)O)c1 [Example 57, N-[(3-{[3-{[(5-Chloro-2-thienyl)sulfonyl]amino}-4-(methyloxy)-1H-indazol-1-yl]methyl}phenyl)methyl]-2-hydroxy-2-methylpropanamide] | 3.98 to 15.8 nM | ≤ 126 nM |
